This passage reports IC50 results from patent US20230322788A1, “IMIDAZOTRIAZINE AND PYRROLOPYRIMIDINE DERIVATIVES AS KRAS G12C INHIBITORS” (BeiGene, Ltd., priority 2020, published 2023).

The target in the experiment is KRAS (aa 1-169) G12C, C51S, C80L, C118S (Homo sapiens (Human), UniProt P01116, C118S/C51S/C80L/G12C). Kind of experiment: KRAS G12C SOS1-mediated nucleotide exchange / cRaf RBD binding FRET assay (Biochemical Functional Assay). The note with it: GDP-loaded KRAS G12C pre-incubated with compound at 24° C. for 3 hrs; SOS1, GTPγS, GST-cRaf RBD; inhibition of nucleotide exchange. On the procedure: The KRAS ([…]) G12C, C51S, C80L, C118S with a His-tag was expressed, purified and loaded with GDP in house. All protein and substrate solutions were prepared in assay buffer containing 25 mM HEPES pH7.5, 10 mM MgCl2, and 0.01% Triton X-100. Purified GDP-loaded KRAS (aa 1-169) G12C, C51S, C80L, C118S protein was pre-incubated with a serially diluted compound at 24° C. for 3 hrs. Purified SOS1 (aa 564-1049) protein, GTPYS (Sigma) and GST-cRaf RBD (aa 1-149) were then added to each well and incubated at 24° C. for additional 3 hrs. […] Following the incubation, Mab Anti-6HIS-Tb cryptate (Cisbio) and Mab Anti GST-XL665 (Cisbio) were added and further incubated at 24° C. for 3 hrs. The binding interaction between active GTPγS KRAS G12C and GST-cRaf RBD brings the Tb and XL665 into close proximity enabling an increased FRET signal (Ex337 nm, Em665 nm/620 nm). The inhibition percentage of nucleotide exchange reaction in presence of increasing concentrations of compounds was calculated based on the ratio of fluorescence at 665 nm to that at 620 nm detected on a BMG PHERAstar FSX instrument. The IC50 value of each compound was calculated from fitting the data to the four-parameter logistic model by Dotmatics.
Chain of KRAS (aa 1-169) G12C, C51S, C80L, C118S (P01116 other isoform, or with tags, fused parts or gaps G12C/C51S/C80L/C118S): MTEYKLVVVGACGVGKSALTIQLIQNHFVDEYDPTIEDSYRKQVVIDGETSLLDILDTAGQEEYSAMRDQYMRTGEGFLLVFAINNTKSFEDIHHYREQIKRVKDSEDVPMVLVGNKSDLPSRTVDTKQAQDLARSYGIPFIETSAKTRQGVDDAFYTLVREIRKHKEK
For the molecule `C=CC(=O)N1CCN(c2nc(OC[C@@H]3CCCN3C)nn3c(C(=O)c4cccc5ccccc45)cnc23)C[C@@H]1CC#N` [Compound A23, 2-((S)-4-(7-(1-naphthoyl)-2-(((S)-1-methylpyrrolidin-2-yl)methoxy)imidazo[2,1-f][1,2,4]triazin-4-yl)-1-acryloylpiperazin-2-yl)acetonitrile], the IC50 amounted to 489 nM.
Next, `C=CC(=O)N1CCN(c2nc(OC[C@@H]3CCCN3C)nc3c(Cc4cc(O)cc5ccccc45)cn(C)c23)C[C@@H]1CC#N` [Compound B1, 2-((S)-1-acryloyl-4-(7-((3-hydroxynaphthalen-1-yl)methyl)-5-methyl-2-(((S)-1-methylpyrrolidin-2-yl)methoxy)-5H-pyrrolo[3,2-d]pyrimidin-4-yl)piperazin-2-yl)acetonitrile]: 6.2 nM; `C=CC(=O)N1CCN(c2nc(OC[C@@H]3CCCN3C)nc3c(Cc4cc(O)cc5ccccc45)cn(CC)c23)C[C@@H]1CC#N` [Compound B2, 2-((S)-1-acryloyl-4-(5-ethyl-7-((3-hydroxynaphthalen-1-yl)methyl)-2-(((S)-1-methylpyrrolidin-2-yl)methoxy)-5H-pyrrolo[3,2-d]pyrimidin-4-yl)piperazin-2-yl)acetonitrile]: 13 nM; `C=CC(=O)N1CCN(c2nc(OC[C@@H]3C[C@@H](F)CN3C)nc3c(Cc4cc(O)cc5ccccc45)cn(C)c23)C[C@@H]1CC#N` [Compound B3, 2-((S)-1-acryloyl-4-(2-(((2S,4R)-4-fluoro-1-methylpyrrolidin-2-yl)methoxy)-7-((3-hydroxynaphthalen-1-yl)methyl)-5-methyl-5H-pyrrolo[3,2-d]pyrimidin-4-yl)piperazin-2-yl)acetonitrile]: 20.3 nM.
As to `C=CC(=O)N1CCN(c2nc(OC[C@@H]3CCCN3C)nc3c(Cc4cc(O)cc5ccccc45)cn(C)c23)CC1` [Compound B4, (S)-1-(4-(7-((3-hydroxynaphthalen-1-yl)methyl)-5-methyl-2-((1-methylpyrrolidin-2-yl)methoxy)-5H-pyrrolo[3,2-d]pyrimidin-4-yl)piperazin-1-yl)prop-2-en-1-one], the half-inhibitory concentration (IC50) was 329 nM.
Turning to `C=CC(=O)N1CCN(c2nc(OC[C@@H]3CCCN3C)nc3c(Cc4c(C(F)(F)F)ccc5[nH]ncc45)c[nH]c23)C[C@@H]1CC#N` [Compound B5, 2-((S)-1-acryloyl-4-(2-(((S)-1-methylpyrrolidin-2-yl)methoxy)-7-((5-(trifluoromethyl)-1H-indazol-4-yl)methyl)-5H-pyrrolo[3,2-d]pyrimidin-4-yl)piperazin-2-yl)acetonitrile], the IC50 came out at 64.1 nM.
Next, `C=C(F)C(=O)N1CCN(c2nc(OC[C@@H]3CCCN3C)nc3c(Cc4c(Cl)c(F)cc5[nH]ncc45)c[nH]c23)C[C@@H]1CC#N` [Compound B6, 2-((S)-4-(7-((5-chloro-6-fluoro-1H-indazol-4-yl)methyl)-2-(((S)-1-methylpyrrolidin-2-yl)methoxy)-5H-pyrrolo[3,2-d]pyrimidin-4-yl)-1-(2-fluoroacryloyl)piperazin-2-yl)acetonitrile]: 639 nM.

The term IC50 denotes the midpoint of a concentration-inhibition curve.
